The text below walks through data of publication PMC5449569, “Basal late sodium current is a significant contributor to the duration of action potential of guinea pig ventricular myocytes” (Physiological Reports, 2017).

This assay addresses T1, NaV1.5 channel (native basal late sodium current, INaL) (Cavia porcellus, UniProt H0V4Z8).
T1 construct: gene SCN5A; native channel in isolated guinea pig ventricular myocytes
The assay is described as follows: whole-cell patch clamp of late Na+ current, single concentration ([…]). The assay is classed as cell-based. The settings on record: read-out: % inhibition at 2 mmol/L. In general terms: The patch-clamp technique gives a direct electrical read-out from membranes.

T1 sequence (H0V4Z8 1-2015): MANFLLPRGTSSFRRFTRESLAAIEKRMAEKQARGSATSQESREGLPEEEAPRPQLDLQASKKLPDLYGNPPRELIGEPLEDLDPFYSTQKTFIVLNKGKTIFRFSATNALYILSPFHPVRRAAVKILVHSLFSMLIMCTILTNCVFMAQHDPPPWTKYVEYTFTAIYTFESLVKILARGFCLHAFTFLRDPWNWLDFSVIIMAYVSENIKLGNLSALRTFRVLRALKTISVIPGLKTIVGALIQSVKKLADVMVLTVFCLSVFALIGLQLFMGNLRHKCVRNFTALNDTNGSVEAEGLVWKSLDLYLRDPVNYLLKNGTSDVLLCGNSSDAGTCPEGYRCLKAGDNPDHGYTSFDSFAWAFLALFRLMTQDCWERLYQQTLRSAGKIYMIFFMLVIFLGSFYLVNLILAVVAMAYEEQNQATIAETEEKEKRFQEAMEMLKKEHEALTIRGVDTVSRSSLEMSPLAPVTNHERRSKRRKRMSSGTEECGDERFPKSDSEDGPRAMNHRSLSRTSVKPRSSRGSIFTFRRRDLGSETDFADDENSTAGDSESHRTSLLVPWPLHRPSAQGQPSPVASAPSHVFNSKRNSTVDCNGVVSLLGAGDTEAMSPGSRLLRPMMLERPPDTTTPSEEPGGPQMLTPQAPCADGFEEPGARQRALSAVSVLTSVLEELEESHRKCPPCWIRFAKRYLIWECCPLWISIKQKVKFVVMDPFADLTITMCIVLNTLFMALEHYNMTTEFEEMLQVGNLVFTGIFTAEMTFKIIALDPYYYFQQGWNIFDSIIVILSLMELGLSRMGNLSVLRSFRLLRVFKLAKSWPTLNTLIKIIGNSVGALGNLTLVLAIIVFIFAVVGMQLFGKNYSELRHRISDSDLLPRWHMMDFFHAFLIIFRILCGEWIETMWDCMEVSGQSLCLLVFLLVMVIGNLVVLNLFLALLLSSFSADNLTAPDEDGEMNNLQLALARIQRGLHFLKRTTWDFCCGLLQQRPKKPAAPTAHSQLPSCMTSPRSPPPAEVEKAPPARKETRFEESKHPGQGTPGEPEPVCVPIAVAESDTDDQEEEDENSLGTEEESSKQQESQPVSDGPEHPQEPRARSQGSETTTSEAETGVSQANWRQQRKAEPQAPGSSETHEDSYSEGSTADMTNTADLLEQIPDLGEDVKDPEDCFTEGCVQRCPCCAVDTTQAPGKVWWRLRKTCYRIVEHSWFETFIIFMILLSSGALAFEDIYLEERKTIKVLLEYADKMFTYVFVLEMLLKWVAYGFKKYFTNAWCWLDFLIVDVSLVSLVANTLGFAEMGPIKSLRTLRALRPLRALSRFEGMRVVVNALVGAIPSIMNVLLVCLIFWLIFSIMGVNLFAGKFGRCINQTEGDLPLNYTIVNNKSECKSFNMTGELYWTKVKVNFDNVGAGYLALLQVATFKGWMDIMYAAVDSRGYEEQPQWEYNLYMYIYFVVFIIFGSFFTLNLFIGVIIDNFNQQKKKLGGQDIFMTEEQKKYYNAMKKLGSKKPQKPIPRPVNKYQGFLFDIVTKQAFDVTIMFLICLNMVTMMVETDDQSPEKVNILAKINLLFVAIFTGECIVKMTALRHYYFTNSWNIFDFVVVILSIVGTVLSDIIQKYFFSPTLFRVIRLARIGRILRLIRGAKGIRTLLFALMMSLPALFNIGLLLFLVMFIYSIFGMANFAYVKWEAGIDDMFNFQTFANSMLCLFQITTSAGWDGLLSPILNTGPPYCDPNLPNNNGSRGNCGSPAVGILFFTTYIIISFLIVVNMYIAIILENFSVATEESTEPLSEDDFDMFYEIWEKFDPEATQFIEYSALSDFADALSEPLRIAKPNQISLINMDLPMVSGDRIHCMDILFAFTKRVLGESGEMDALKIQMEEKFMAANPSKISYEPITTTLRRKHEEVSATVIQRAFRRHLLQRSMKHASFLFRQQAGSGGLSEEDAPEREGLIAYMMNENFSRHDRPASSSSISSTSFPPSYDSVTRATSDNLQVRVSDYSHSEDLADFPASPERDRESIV

With `CS(=O)(=O)SCCN` [MTSEA], the inhibition at 2000 µM was 90 ± 5%.
